According to patent US20260226128A1, “Capped Peptides and Methods for Using the Same” (The Board of Trustees of the Leland Stanford Junior …, priority 2023, published 2026):
Where a SMILES comes first, the peptide text is derived from it.

Key:
human TACR1 = biological target: T1, human TACR1 (Homo sapiens, UniProt P25103); test: human TACR1-beta arrestin recruitment assay (PathHunter beta-arrestin CHO-K1 cells); format: cell-based; conditions: human TACR1-transfected PathHunter beta-arrestin CHO-K1 cells
T1 construct: host or cells: PathHunter beta-arrestin CHO-K1 cells
From the text: (§1) FIG. 4. […] (A) Schematic and annotation of the primary amino acid sequence for full-length mouse TAC1 preproprotein and its cleavage products. […] For (B), N=2 per concentration; for (C), N=3 per condition. For (B,C), data are shown as means±SEM. * P<0.05, ** P<0.01 versus control by Student's t-test.

[1] = Half-life of peptides incubated in mouse plasma, levels by LC-MS
Procedure: as §1
Half-life calculations of CAP-TAC1 in plasma. 10 µM of either synthetic CAP-TAC1 or SP was incubated with 100 μl of mouse plasma. Samples were incubated at 37° C. for 0, 10, 30, 60, or 90 minutes (N=3 for each time point). At the indicated time point, 1 μl of HALT protease inhibitor was immediately added, and plasma was boiled and prepared using the peptidomics workflow described above. […] Half-lives were calculated using an exponential decay fit.

diet induced obese mice [2] = test: Daily CAP-TAC1 treatment of diet induced obese mice with pair fed group; format: in vivo, mouse; conditions: 10 mg/kg daily
Procedure: FIG. 10. […] (A) Body weight change and (B) food intake of diet induced obese mice injected with vehicle (18:1:1 Saline: DMSO: Kolliphor EL), 10 mg/kg CAP-TAC1 (pGlu-FFGLM-NH2), and vehicle pair fed to CAP-TAC1 group. (N=6 for vehicle, N=7 for CAP-TAC1 and pair fed groups, error bars are SEM, and P values calculated with two-way ANOVA.)
CAP-TAC1 treatments in mice. Injected diet induced obese (on high fat diet, 4 months old, male, C57BL/6J, Jackson cat #380050) mice daily with vehicle (18:1:1 Saline: DMSO: Kolliphor EL) or 10 mg/kg CAP-TAC1 (pGlu-FFGLM-NH2). The pair fed group was started one day later and fed the same food the CAP-TAC1 mice ate daily. Mice were singly housed and injected daily ~12 μm. Mouse body weights and food weights were measured at the same time. (N=6 for vehicle, N=7 for CAP-TAC1 and pair fed groups.)

diet induced obese mice [3] = test: Oxygen consumption after single CAP-TAC1 injection, metabolic chambers; format: in vivo, mouse; conditions: single injection at T=0, 10 mg/kg (FIG. 11 legend), over 24 hours
Procedure: FIG. 11. CAP-TAC1 acutely induces oxygen consumption over 24 hours. Oxygen consumption (VO2) of diet induced obese mice injected with a single injection at T=0 vehicle (18:1:1 Saline: DMSO: Kolliphor EL) or 10 mg/kg CAP-TAC1 (pGlu-FFGLM-NH2). (N=4 for vehicle and CAP-TAC1 groups, error bars are SEM, and P values calculated with two-way ANOVA.)
Metabolic chamber studies. For acute energy expenditure studies, food intake, RER, movement, VO2, and VCO2 were collected with CLAMS Oxymax Metabolic Cages. Mice were placed individual metabolic cages for 24 hours prior to experiment. For CAP-GDF15 experiments, mice were injected with either vehicle, 50 mg/kg CAP-GDF15, or 50 mg/kg scrambled CAP-GDF15 at 5 μm at T=0. For CAP-TAC1 experiments, mice were injected with either vehicle (18:1:1 Saline: DMSO: Kolliphor EL) or […] CAP-TAC1 (pGlu-FFGLM-NH2) at ~12 μm (T=0). Food intake, RER, movement, VO2, and VCO2 were collected every 7 minutes for […] immediately after injection. All experiments were done with 3-5 month old DIO mice (Jackson, stock 380050), fed high fat diet ad libitum.

diet-induced obese mice [4] = test: Single dose in diet-induced obese mice, metabolic chambers (CAP-GDF15 experiments); format: in vivo, mouse; conditions: single dose 50 mg/kg intraperitoneally
Procedure: (§2) FIG. 5. Functional studies of CAP-GDF15 in feeding and energy balance in mice. […] (B) Representative extracted ion chromatogram and (C) mirror tandem fragmentation spectra of CAP-GDF15 (pGlu-[…]-NH2; +2 ion m/z=682.4) and the endogenous plasma peak. (D) Food intake, (E) respiratory exchange ratio (RER), and (F) ambulatory activity of 12-16-week diet-induced obese male mice following a single treatment of CAP-GDF15 (50 mg/kg, intraperitoneal) or vehicle control. (G) Food intake, (H) RER, and (I) ambulatory activity of 12-16-week diet-induced obese male mice following a single treatment of scrambled CAP-GDF15 (50 mg/kg, intraperitoneal, scrambled sequence: pGlu-[…]-NH2) or vehicle control. (J) 3-day food intake and (K) body weight of 12-16-week diet-induced obese male mice following treatment with CAP-GDF15 or scrambled CAP-GDF15 (50 mg/kg/day, IP), or vehicle control. Data are shown as means #SEM. For (D-F), N=12/group; for (G-I), N=8/group; for (J,K), N=7/group. For (D-1), injection occurred at time T=0 (5:00 μm) and data was collected for the following 16 hrs. For (D-K), ** P<0.01, *** P<0.001 by two-way ANOVA.
FIG. 6. Additional measurements from metabolic chambers of mice treated with CAP-GDF15. (A) VO2 and (B) VCO2 of 12-16-week diet-induced obese male mice following a single treatment of CAP-GDF15 (50 mg/kg, intraperitoneal) or vehicle control. (C) VO2 and (D) VCO2 of 12-16-week diet-induced obese male mice following a single treatment of scrambled CAP-GDF15 (50 mg/kg, intraperitoneal, scrambled sequence: p[…]-NH2) or vehicle control. Data are shown as means±SEM. For (A-B), N=12/group; for (C-D), N=8/group. For (A-D), injection occurred at time T=0 (5:00 μm) and data was collected for the subsequent 16 hrs.
To test this possibility, we administered a single dose of CAP-GDF15 (50 mg/kg, intraperitoneally) to diet-induced obese mice and measured whole body parameters of energy balance in metabolic chambers.
We next synthesized a control CAP-GDF15 peptide that preserved amino acid composition but scrambled the intervening amino acid sequence (scrambled CAP-GDF15, pGlu-[…]-NH2). […] We conclude that the hypophagic effects of CAP-GDF15 are specific to this amino acid sequence.
(§3) Mice and treatments. Animal experiments were performed according to a procedure approved by the Stanford University Administrative Panel on Laboratory Animal Care. Mice were maintained in 12-h light-dark cycles at 22° C. and about 50% relative humidity and fed a standard irradiated rodent diet. Where indicated, a high-fat diet (D12492, Research Diets 60% kcal from fat) was used. Male C57BL/6J (stock number 000664) and male C57BL/6J DIO mice were purchased from the Jackson Laboratory (stock number 380050). For studies in high fat diet-fed mice, peptides were dissolved in 18:1:1 (by volume) of saline: Kolliphor EL (Sigma Aldrich): DMSO and administered to mice by intraperitoneal injections at a volume of 10 μl/g at the indicated doses for the indicated times. For lipopolysaccharide injection, LPS was dissolved in saline and administered to mice at a volume of 5 μl/g at indicated dose. For fasting, food was removed from mice for 16 h. For running, a six-lane Columbus Instruments animal treadmill (product 1055-SRM-D65) was used with following 1 h protocol: 10 min at 6 m/min, 50 min at 18 m/min, and increase every 2 min by 2 m/min for the last 10 minutes, all at 12° incline. For all treatment experiments, mice were mock injected with the vehicle for 3-5 days until body weights were stabilized. Heparin plasm was harvested by submandibular bleed. For all experiments, mice were randomly assigned to treatment groups. Experimenters were not blinded to groups.
Metabolic chamber studies. For acute energy expenditure studies, food intake, RER, movement, VO2, and VCO2 were collected with CLAMS Oxymax Metabolic Cages. Mice were placed individual metabolic cages for 24 hours prior to experiment. […]

diet-induced obese mice [5] = test: Three-day daily dosing in diet-induced obese mice, food intake and body weight; format: in vivo, mouse; conditions: 50 mg/kg/day, IP, 3 days, versus vehicle control
Procedure: as §2
Lastly, to determine whether the acute hypophagic effects of CAP-GDF15 would lead to long-term suppression of feeding and obesity, we administered CAP-GDF15 or scrambled CAP-GDF15 (50 mg/kg/day, IP), or vehicle control to diet-induced obese mice. Food intake and body weight were monitored over a three-day period. […] Importantly, mice treated with the scrambled CAP-GDF15 peptide were indistinguishable in body weight or food intake from control mice (FIGS. 5J-5K).
as §3, with “For all treatment experiments, mice were mock injected with the vehicle for 3-5 days until body weights were stabilized. Heparin plasm was harvested by submandibular bleed. For all experiments, mice were randomly assigned to treatment groups. Experimenters were not blinded to groups.” left out

GH3 cells = test: Growth hormone secretion from GH3 cells (ELISA of media); format: cell-based, rat; conditions: 10 μM
Procedure: FIG. 13. Functional screen in GH3 cells identifies CAP-WNT9A as a growth hormone secretagogue in vitro. (A) Z-score of media growth hormone concentration with 1 hour treatment of 10 μM of 100% conserved capped peptides growth hormone secretagogue activity in GH3 cells (N=1 for all peptides and N=3 for DMSO). (B) Media growth hormone concentration with 1 hour treatment of 10 μM CAP-WNT9A or DMSO (N=3/group). (Error bars are SEM.)
In a functional screen in GH3 cells, a rat pituitary cell line, various capped peptides are shown to activate growth hormone secretion (FIG. 13A).
In vitro studies. GH3 cells (rat pituitary cell line, ATCC cat. #CCL-82.1) were cultured in F-12K medium with 2.5% fetal bovine serum and 15% horse serum. GH3 cells were washed, resuspended in Krebs Ringer Hepes Buffer, diluted to 0.5 million cells/mL, and aliquoted into tubes (300 μL/sample). The GH3 cells were then starved for 60 minutes in Krebs Ringer Hepes Buffer. The capped peptides (N=1 in screen and N=3 in repeat with CAP-WNT9A) or DMSO (N=3) control were added at a 10 μM final concentration. GH3 cells were incubated for 1 hour. Cells were pelleted with 5 min centrifuge spin at 500×g at 4 C. Grown hormone was measured in the supernatant with an ELISA kit (Thermo Cat #KRC5311) according to product protocol. Z-score of growth hormone concentration is shown. […]

T1 sequence (P25103 whole entry): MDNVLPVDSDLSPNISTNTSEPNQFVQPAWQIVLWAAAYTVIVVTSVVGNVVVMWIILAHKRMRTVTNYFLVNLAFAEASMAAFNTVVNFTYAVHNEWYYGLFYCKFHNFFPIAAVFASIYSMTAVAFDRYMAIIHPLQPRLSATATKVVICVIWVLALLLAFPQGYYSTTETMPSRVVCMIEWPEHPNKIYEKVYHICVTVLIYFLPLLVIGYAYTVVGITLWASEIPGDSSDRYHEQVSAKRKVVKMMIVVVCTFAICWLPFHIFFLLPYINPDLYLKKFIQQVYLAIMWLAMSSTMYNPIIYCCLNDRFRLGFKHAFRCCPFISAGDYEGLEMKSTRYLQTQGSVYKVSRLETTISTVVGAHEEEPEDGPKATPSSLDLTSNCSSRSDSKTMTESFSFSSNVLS

## CSCC[C@H](NC(=O)[C@H](CC(C)C)NC(=O)CNC(=O)[C@H](Cc1ccccc1)NC(=O)[C@H](Cc1ccccc1)NC(=O)[C@@H]1CCC(=O)N1)C(N)=O [CAP-TAC1, pGlu-FFGLM-NH2] (HELM PEPTIDE1{[Glp].F.F.G.L.M.[am]}$$$$V2.0)
Human TACR1; read-out: ED50, agonism of TACR1
  EC50: 0.7 nM
Human TACR1; read-out: maximal activation, % of maximal response
  Emax: 96.6%
[1]
  peptide level in mouse plasma after 90 min: still detectable
[1]; mouse, plasma
  half-life at 10 µM: 14.4 min
Diet induced obese mice [2]; versus vehicle
  food intake: independent of any changes of food intake
Diet induced obese mice [2]; versus vehicle and pair fed group
  body weight change: induces body weight loss
Diet induced obese mice [3]
  oxygen consumption (VO2): induces an increase in oxygen consumption

## pGlu-GLEALRARLRV-NH2 (HELM PEPTIDE1{[Glp].G.L.E.A.L.R.A.R.L.R.V.[am]}$$$$V2.0; SMILES CC(C)C[C@H](NC(=O)CNC(=O)[C@@H]1CCC(=O)N1)C(=O)N[C@@H](CCC(=O)O)C(=O)N[C@@H](C)C(=O)N[C@@H](CC(C)C)C(=O)N[C@@H](CCCNC(=N)N)C(=O)N[C@@H](C)C(=O)N[C@@H](CCCNC(=N)N)C(=O)N[C@@H](CC(C)C)C(=O)N[C@@H](CCCNC(=N)N)C(=O)N[C@H](C(N)=O)C(C)C) [scrambled CAP-GDF15, reference compound]
diet-induced obese mice [4]; 16 hrs after injection
  respiratory exchange ratio (RER): completely ineffective
diet-induced obese mice [4]; identical experimental conditions
  food intake, effect in words: completely ineffective
diet-induced obese mice [5]
  body weight over three-day period: indistinguishable
  food intake over three-day period: indistinguishable

## pGlu-WGGCGDNLKYSSKFVEFL-NH2 (HELM PEPTIDE1{[Glp].W.G.G.C.G.D.N.L.K.Y.S.S.K.F.V.E.F.L.[am]}$$$$V2.0; SMILES CC(C)C[C@H](NC(=O)[C@H](Cc1ccccc1)NC(=O)[C@H](CCC(=O)O)NC(=O)[C@@H](NC(=O)[C@H](Cc1ccccc1)NC(=O)[C@H](CCCCN)NC(=O)[C@H](CO)NC(=O)[C@H](CO)NC(=O)[C@H](Cc1ccc(O)cc1)NC(=O)[C@H](CCCCN)NC(=O)[C@H](CC(C)C)NC(=O)[C@H](CC(N)=O)NC(=O)[C@H](CC(=O)O)NC(=O)CNC(=O)[C@H](CS)NC(=O)CNC(=O)CNC(=O)[C@H](Cc1c[nH]c2ccccc12)NC(=O)[C@@H]1CCC(=O)N1)C(C)C)C(N)=O) [CAP-WNT9A, top hit of growth hormone secretagogue screen]
GH3 cells; 1 hour treatment, N=1
  growth hormone secretagogue activity in screen (Z-score of media growth hormone concentration): highest growth hormone secretagogue activity
GH3 cells; one hour treatment, N=3
  growth hormone concentration in media versus DMSO: increased by four times

## pGlu-LELRLRVAAGR-NH2 (HELM PEPTIDE1{[Glp].L.E.L.R.L.R.V.A.A.G.R.[am]}$$$$V2.0; SMILES CC(C)C[C@H](NC(=O)[C@@H]1CCC(=O)N1)C(=O)N[C@@H](CCC(=O)O)C(=O)N[C@@H](CC(C)C)C(=O)N[C@@H](CCCNC(=N)N)C(=O)N[C@@H](CC(C)C)C(=O)N[C@@H](CCCNC(=N)N)C(=O)N[C@H](C(=O)N[C@@H](C)C(=O)N[C@@H](C)C(=O)NCC(=O)N[C@@H](CCCNC(=N)N)C(N)=O)C(C)C) [CAP-GDF15, 12-mer capped peptide from amino acids 174-185 of mouse GDF15 prepropeptide region]
diet-induced obese mice [4]
  carbon dioxide production (VCO2): did not alter
  movement (ambulatory activity): did not alter
  oxygen consumption (VO2): did not alter
diet-induced obese mice [4]; 16 hrs after injection
  respiratory exchange ratio (RER): suppression of respiratory exchange ratio (RER) was also observed
  suppression of food intake compared to vehicle-treated mice: ~ 60%
diet-induced obese mice [5]
  body weight over three-day period: increasing reduction in body weight
  food intake over three-day period: durable suppression of food intake
